Data taken from ChEMBL document CHEMBL4823256 (J Med Chem, 2021).

Key:
Human orthopneumovirus [1] = experiment: microbe, parasite or virus in culture; details: human respiratory syncytial virus, A2, HEp-2, 96 h
[2] = system: Respiratory syncytial virus; experiment: microbe, parasite or virus in culture; details: human respiratory syncytial virus, Primary bronchial epithelial cell, 72 h
in vitro [3] = details: human, HEp-2 cells
in vitro [4] = details: human, HEp-2 cells; remark: listed apart in the source
in vitro [5] = details: human, Caco-2
in vitro [6] = details: human, Caco-2; remark: listed apart in the source
in vitro [7] = details: human, MT4 cells
Hepatitis C virus = experiment: microbe, parasite or virus in culture; details: subtype 1b, Huh-7, 72 h
in vitro [8] = details: human, Huh-7 cells
in vivo [9] = details: cynomolgus monkey, iv, 20 mg/kg
in vivo [10] = details: dog, po
in vivo [11] = details: cynomolgus monkey, iv, 20 mg/kg; remark: listed apart in the source
cells [12] = details: Homo sapiens, Primary bronchial epithelial cell, 48 h
in vivo [13] = details: Sprague-Dawley, rat, po, 8 mg/kg
cells [14] = details: Homo sapiens, HEp-2, 48 h
in vivo [15] = details: cynomolgus monkey, po, 20 mg/kg
in vivo [16] = details: cynomolgus monkey, iv, 10 mg/kg
in vivo [17] = details: cynomolgus monkey, iv, 10 mg/kg; remark: listed apart in the source
in vivo [18] = details: chlorocebus sabaeus, iv, 10 mg/kg
Human orthopneumovirus [19] = details: hep-2
in vivo [20] = details: chlorocebus sabaeus, iv, 10 mg/kg; remark: listed apart in the source
in vivo [21] = details: chlorocebus sabaeus, iv, 10 mg/kg; remark: listed apart in the source
[22] = system: Respiratory syncytial virus; details: primary bronchial epithelial cell
clinical [23] = details: human, in vivo, iv, 75 mg
in vivo [24] = details: cynomolgus monkey, iv, 10 mg/kg; remark: listed apart in the source
in vivo [25] = details: cynomolgus monkey, iv, 10 mg/kg; remark: listed apart in the source
in vivo [26] = details: chlorocebus sabaeus, iv, 10 mg/kg; remark: listed apart in the source
clinical [27] = details: human, in vivo, iv, 75 mg; remark: listed apart in the source
in vivo [28] = details: chlorocebus sabaeus, iv, 10 mg/kg; remark: listed apart in the source
in vivo [29] = details: cynomolgus monkey, iv, 10 mg/kg; remark: listed apart in the source

Compound | EC50 (Human orthopneumovirus [1]) [µM] | EC50 [2] [µM] | CC50 (in vitro [3]) [µM] | selectivity ratio (in vitro [4]; Ratio CC50/EC50) | also measured
CCC(CC)COC(=O)[C@H](C)NP(=O)(N[C@@H](C)C(=O)OCC(CC)CC)OC[C@H]1O[C@@](C#N)(c2ccc3c(N)ncnn23)[C@H](O)[C@@H]1O | 0.31 | 0.17 | 36 |  | selectivity ratio (in vitro [4]): 116
CCC(=O)OC[C@H]1O[C@@](C#N)(c2ccc3c(N)ncnn23)[C@H](OC(=O)CC)[C@@H]1OC(=O)CC | 0.43 |  | > 100 |  | Papp A→B (in vitro [5]): < 1 nm/s; Papp B→A (in vitro [6]): 2.6 nm/s
CC(C)[C@H](N)C(=O)OC[C@H]1O[C@@](C#N)(c2ccc3c(N)ncnn23)[C@H](O)[C@@H]1O | 1.11 |  | > 100 |  | Papp A→B (in vitro [5]): 5.5 nm/s; Papp B→A (in vitro [6]): 4.5 nm/s
CCC(CC)COC(=O)[C@H](C)N[P@@](=O)(OC[C@H]1O[C@@](C#N)(c2ccc3c(N)ncnn23)[C@H](O)[C@@H]1O)Oc1ccccc1 | 0.028 | 0.065 | 26 |  | 
C[C@H](NP(=O)(OC[C@H]1O[C@@](C#N)(c2ccc3c(N)ncnn23)[C@H](O)[C@@H]1O)Oc1ccccc1)C(=O)OC(C)(C)C (some centres not stated) | 4.5 | > 5 | > 100 | > 22 | 
C[C@H](NP(=O)(OC[C@H]1O[C@@](C#N)(c2ccc3c(N)ncnn23)[C@H](O)[C@@H]1O)Oc1ccccc1)C(=O)OCC1CC1 (some centres not stated) | 0.044 | 0.62 | 50 |  | selectivity ratio (in vitro [4]): 1140
C[C@H](NP(=O)(OC[C@H]1O[C@@](C#N)(c2ccc3c(N)ncnn23)[C@H](O)[C@@H]1O)Oc1ccccc1)C(=O)OC1CCC1 (some centres not stated) | 0.075 | 0.42 | 34 | 453 | 
CC(C)OC(=O)[C@H](C)NP(=O)(OC[C@H]1O[C@@](C#N)(c2ccc3c(N)ncnn23)[C@H](O)[C@@H]1O)Oc1ccccc1 (some centres not stated) | 0.36 | 2.5 | > 100 | > 277 | 
C[C@H](NP(=O)(OC[C@H]1O[C@@](C#N)(c2ccc3c(N)ncnn23)[C@H](O)[C@@H]1O)Oc1ccccc1)C(=O)OCC1CCC1 (some centres not stated) | 0.024 | 0.13 | 23 |  | selectivity ratio (in vitro [4]): 958
CCOC(=O)[C@H](C)NP(=O)(N[C@@H](C)C(=O)OCC)OC[C@H]1O[C@@](C#N)(c2ccc3c(N)ncnn23)[C@H](O)[C@@H]1O | 6.48 |  | > 100 | > 15 | 
C#C[C@@]1(c2ccc3c(N)ncnn23)O[C@H](CO)[C@@H](O)[C@H]1O | 34 |  | > 100 |  | CC50 at 120 h (in vitro [7]): > 50 µM; EC50 (Hepatitis C virus): > 89 µM; CC50 at 72 h (in vitro [8]): > 89 µM
C#C[C@@]1(c2ccc3c(N)ncnn23)O[C@H](COP(=O)(N[C@@H](C)C(=O)OCC(CC)CC)Oc2ccccc2)[C@@H](O)[C@H]1O (some centres not stated) | 0.75 |  | > 100 | > 133 | 
C[C@@]1(c2ccc3c(N)ncnn23)O[C@H](CO)[C@@H](O)[C@H]1O | 5.5 |  |  |  | CC50 at 120 h (in vitro [7]): 4.5 µM; CC50 at 72 h (in vitro [8]): > 45 µM
N#C[C@@]1(c2ccc3c(N)ncnn23)O[C@H](CO)[C@@H](O)[C@H]1O [GS-441524] | 0.53 | 1.85 | > 100 |  | AUC(0-inf) at 0.5 h (in vivo [9]): 123 µM·h; bioavailability (in vivo [10]): 89%; CC50 at 120 h (in vitro [7]): > 50 µM; Cmax at 0.5 h (in vivo [11]): 79.2 µM; Papp A→B (in vitro [5]): 1.7 nm/s; IC50 (cells [12]): 0.22 µM; bioavailability (in vivo [13]): 12%; Papp B→A (in vitro [6]): 21 nm/s; IC50 (cells [14]): 0.35 µM; CC50 at 72 h (in vitro [8]): > 89 µM; bioavailability (in vivo [15]): 3.4%
Nc1ncnn2c([C@@H]3O[C@H](CO)[C@@H](O)[C@H]3O)ccc12 | > 50 |  | 0.036 |  | CC50 at 120 h (in vitro [7]): < 0.01 µM; EC50 (Hepatitis C virus): 0.0035 µM
C[C@H](NP(=O)(OC[C@H]1O[C@@](C#N)(c2ccc3c(N)ncnn23)[C@H](O)[C@@H]1O)Oc1ccccc1)C(=O)OC1CCCC1 (some centres not stated) | 0.17 | 0.35 | > 80 | 471 | 
CCC(CC)OC(=O)[C@H](C)NP(=O)(OC[C@H]1O[C@@](C#N)(c2ccc3c(N)ncnn23)[C@H](O)[C@@H]1O)Oc1ccccc1 (some centres not stated) | 0.31 | > 5 | > 100 | 323 | 
CCC(CC)COC(=O)[C@H](C)N[P@](=O)(OC[C@H]1O[C@@](C#N)(c2ccc3c(N)ncnn23)[C@H](O)[C@@H]1O)Oc1ccccc1 (stereo in doubt) |  |  |  |  | Vd at 0.5 h (in vivo [16]): 0.45 L/kg; Cmax at 0.5 h (in vivo [17]): 22.7 µM; Vd at 0.5 h (in vivo [18]): 0.94 L/kg; EC50 (Human orthopneumovirus [19]): 0.015 µM; Cmax at 0.5 h (in vivo [20]): 12.6 µM; clearance at 0.5 h (in vivo [21]): 2.13 L/h/kg; EC50 [22]: 0.049 µM; Cmax at 0.5 h (clinical [23]): 5 µM; clearance at 0.5 h (in vivo [24]): 1.92 L/h/kg; half-life at 0.5 h (in vivo [25]): 24 min; IC50 (cells [12]): 0.14 µM; AUC(0-inf) at 0.5 h (in vivo [26]): 7.9 µM·h; IC50 (cells [14]): 0.11 µM; Cmax at 1 h (clinical [27]): < 1 µM; half-life at 0.5 h (in vivo [28]): 48 min; bioavailability (in vivo [15]): < 1%; AUC(0-inf) at 0.5 h (in vivo [29]): 8.8 µM·h
CC(C)C(=O)OC[C@H]1O[C@@](C#N)(c2ccc3c(N)ncnn23)[C@H](OC(=O)C(C)C)[C@@H]1OC(=O)C(C)C | 0.26 |  | 81 |  | bioavailability (in vivo [13]): 57%; Papp B→A (in vitro [6]): 15 nm/s; bioavailability (in vivo [15]): 28%
C[C@@]1(O)[C@H](O)[C@@H](CO)O[C@@]1(C#N)c1ccc2c(N)ncnn12 | > 100 |  | > 100 |  | CC50 at 120 h (in vitro [7]): > 200 µM; EC50 (Hepatitis C virus): > 89 µM; CC50 at 72 h (in vitro [8]): > 89 µM
CC(C)(C)C(=O)SCCOP(=O)(OCCSC(=O)C(C)(C)C)OC[C@H]1O[C@@](C#N)(c2ccc3c(N)ncnn23)[C@H](O)[C@@H]1O | 0.15 |  | 8.7 |  | selectivity ratio (in vitro [4]): 58
C[C@H](NP(=O)(OC[C@H]1O[C@@](C#N)(c2ccc3c(N)ncnn23)[C@H](O)[C@@H]1O)Oc1ccccc1)C(=O)OCC(C)(C)C (some centres not stated) | 0.05 | 0.53 | 11 | 220 | 
CC(=O)OC[C@H]1O[C@@](C#N)(c2ccc3c(N)ncnn23)[C@H](OC(C)=O)[C@@H]1OC(C)=O | 0.82 |  | > 100 |  | Papp A→B (in vitro [5]): 9 nm/s; Papp B→A (in vitro [6]): 19 nm/s
CCC(CC)COC(=O)[C@H](C)N[P@](=O)(OC[C@H]1O[C@@](C#N)(c2ccc3c(N)ncnn23)[C@H](O)[C@@H]1O)Oc1ccccc1 (stereo in doubt; 18j) | 0.027 | 0.069 |  |  | 
CCOC(=O)[C@H](C)NP(=O)(OC[C@H]1O[C@@](C#N)(c2ccc3c(N)ncnn23)[C@H](O)[C@@H]1O)Oc1ccccc1 (some centres not stated) | 0.3 | 0.85 | > 73 | > 243 | 
C[C@H](NP(=O)(OC[C@H]1O[C@@](C#N)(c2ccc3c(N)ncnn23)[C@H](O)[C@@H]1O)Oc1ccccc1)C(=O)OC1CCCCCCC1 (some centres not stated) | 0.028 |  | 48 |  | selectivity ratio (in vitro [4]): 1710
